Experimental findings from US7572454B2, “T helper cell epitopes” (priority 1999, dated 2009) are described below.

For assay [1], the system named is LHRH. The assay can be described thus: Trial K9-8: antibody response to LHRH by ELISA. Format: in vivo, dog. The following applies: for antibody responses to LHRH: Trial K9-8, T-cell-LHRH constructs named by their T-cell epitope. As for the experimental part: A total of 35 dogs mixed sex were used in this trial. All had been previously vaccinated with a live CDV vaccine but had not been vaccinated against LHRH.
The T-Helper epitopes were linked to a truncated form of LHRH, containing amino acids 2 to 10 of the native 10 amino acid sequence, as shown below:
All vaccines were formulated as for Example 2, ie each 1 mL dose of vaccine contained 40nmoles of peptide, 150 μg Iscomatrix™, and thiomersal as preservative.
Where dogs were vaccinated with a pool of peptides, the concentration of each peptide was adjusted to give equal concentrations and a total amount of 40 nmoles of LHRH epitope per 1 mL dose.
All dogs were vaccinated with a 1 mL dose, delivered in the scruff of the neck. Vaccinations were given at 0 and 4 weeks and venous blood samples were obtained at intervals during the trial.
Effective T-cell help was determined by measuring the antibody response to LHRH by ELISA. Biological effectiveness of the peptide based vaccine was determined by measuring the levels of progesterone in female dogs and testosterone in male dogs.
On the technique in general: In an ELISA, binding on a coated surface is turned into a signal by an enzyme label.

The subject of assay [2] is PBMCs obtained from dogs immunised with peptide vaccines. The assay can be described thus: In vitro T cell proliferation assay without enrichment, PBMCs of peptide-vaccinated dogs against Th-epitope and truncated versions. The settings on record: dogs of Example 2 immunised with the respective Th-epitope-LHRH; FIGS. 2-4. Format: cell-based, dog. Here is the method: The assay was carried out without the enrichment of PBMCs. PBMCs obtained from Ficoll gradient purification were directly tested against the respective Th-epitope and its truncated versions. […] Truncated versions of the respective Th-epitopes were also tested to more closely define the T-cell activity within the sequences. […] This implies that the T-cell activity is towards the N-terminus or middle of the 17-residue peptide.

Assay [3] concerns PBMCs from dogs immunised with CDV. The assay can be described thus: T-cell proliferation after in vitro stimulation of PBMC with peptide pools, tested with autologous APCs and single peptides. Format: cell-based, dog. Here is the method:
An alternate strategy was used to increase the precursor frequency of specific T cells recognising the CDV peptides. Fresh PBMCs obtained from these hyperimmunised dogs were subjected to stimulation in vitro with pools of all 94 peptides for 30 minutes at 37° C. The cells were then washed to remove any excess peptides and cultured for 7 days. This population of T cells was then tested with autologous APCs with every single peptide as the antigen.
To confirm this observation, the same four dogs were bled again, five weeks after receiving the dose of killed virus. The PBMCs were stimulated in vitro with pools of either all 94 peptides or peptides 21-40 (because most of the activity was in this region) and after 7 days of culture the stimulated T cells were tested against individual peptides. Significant stimulatory indices were obtained with all peptides, confirming the above results. Four more dogs which received only one dose of 3 in 1 vaccine were tested using the in vitro stimulation method and all four dogs responded to the majority of peptides shown in Table 2.
Once again the same peptides and one additional peptide P32 were tested on cells from additional dogs.

In assay [4] the test system is LHRH. Kind of assay: Trial in BALB/c mice: antibody response to LHRH by ELISA. Format: in vivo. Here is the method: The canine vaccines with CDV-F derived Th-epitopes and LHRH used in Example 3 were also used to immunise BALB/c mice to investigate if the Th-epitopes would be functional in a different animal species.
All vaccines were formulated as for Example 3 except that they were diluted further so that 100 μl doses contained 2.7 nmoles of peptide and 10 μg of Iscomatrix™ and thiomersol as preservative.
Mice were vaccinated with 100 μl of the vaccine at the base of tail. Vaccinations were given at 0 and 4 weeks and animals bled at intervals after each vaccination from the retro-orbital plexus. Effective T-cell help was determined by measuring the antibody response to LHRH by ELISA.

Assay [5] has as its system LHRH. Kind of assay: Trial K9-5: antibody response to LHRH by ELISA. Format: in vivo, dog. The settings on record: Trial K9-5, text.
Setting [6] is: Table 1, Beagle Foxhound (Dog #18), hyperimmunised, PBMC stimulated with pool of all 94 peptides, 7 days culture.
[7] abbreviates: Table 1, Beagle Foxhound (Dog #19).
Where [8] appears, read: Table 1, Beagle Foxhound (Dog #20).
[9] abbreviates: Table 1, Beagle Foxhound (Dog #21).
[10] abbreviates: Table 2, Beagle Foxhound (Dog #71), one dose of 3 in 1 vaccine.
Setting [11] is: Table 2, Beagle Foxhound (Dog #72), one dose of 3 in 1 vaccine.
The mark [12] stands for this setting: Table 2, Beagle Foxhound (Dog #73), one dose of 3 in 1 vaccine.
The mark [13] stands for this setting: Table 3, Kelpie Foxhound (Dog #125).
[14] abbreviates: Table 3, Kelpie Foxhound (Dog #126).

Ends that are not written are not given here. A value given as a limit tells only on which side of the number the result lay.

“AELGEYEKLLNSVLEPI (canine distemper virus; synthetic peptide from canine distemper virus fusion protein (CDV-F) designated peptide P27)”: in the assay on LHRH [1], the “antibody responses to LHRH” value is recorded as “Strong antibody responses”. In addition, the “Stimulation indices to Th-epitope and its truncated versions” value (from here on “Stimulation indices”) in assay [2] is “the 17 residue long peptide was a better simulator than the 15-mer”. For the same substance, the Stimulatory index was 3.3 in assay [3] (setting [6]); 34 in assay [3] (setting [7]); 6.7 in assay [3] (setting [8]); 14.8 in assay [3] (setting [9]); 2.7 in assay [3] (setting [10]); 3.5 in assay [3] (setting [11]). For the same substance, the results for the Stimulatory index in assay [3] (setting [12]), in assay [3] (setting [13]) and in assay [3] (setting [14]) were 4.8, 4.5 and 8.5, respectively.

In the case of “KLIPNASLIENCTKAEL (canine distemper virus; synthetic peptide from canine distemper virus fusion protein (CDV-F) designated peptide P25)”, the “antibody responses to LHRH” value in the assay with LHRH [1] is listed as “Strong antibody responses”. In assay [2], the “Stimulation indices” value is “the full sequence of 17 residues was better than the shorter peptides of 15 and 12 residues”. Further, the Stimulatory index in assay [3] (setting [6]) is 3.2; in assay [3] (setting [7]), 11.9; in assay [3] (setting [8]), 4.5; in assay [3] (setting [9]), 17; in assay [3] (Table 2, Beagle Foxhound (Dog #70), one dose of 3 in 1 vaccine), 1.5; in assay [3] (setting [10]), 2.9. Further, the Stimulatory index in assay [3] (setting [11]) is given as 2; in assay [3] (setting [12]), 12; in assay [3] (Table 5, Border Collie), less than 2; in assay [3] (Table 5, Fox Terrier), 2.6; in assay [3] (Table 5, Grey hound) it was less than 2; in assay [3] (Table 5, Kelpie Pointer) it was 2.6. In addition, the Stimulatory index was less than 2 in assay [3] (Table 5, Poodle Shitzu) and less than 2 in assay [3] (Table 5, Terrier Cross).

On to “P35-LHRH: T-helper epitope P35 linked to truncated LHRH, amino acids 2 to 10 (SEQ ID NO: 29) (HWSYGLRPG; not fully specified (N-terminus); ends and bridges not checked; also: linked to T-helper epitope P35; listed as Homo sapiens) [Peptide P35-LHRH]”, for which the “Anti LHRH Titres, 2 wks post boost, GMT” value in the assay with LHRH [1] (group GMT) turned out to be 103085. Moreover, in the assay with LHRH [1] (group GMT), the “Anti LHRH Titres, 4 wks after primary, GMT” value is reported as 2469. Besides, the “Anti LHRH Titres, 4 wks post boost, GMT” value with LHRH [1] (group GMT) stood at 58002. Also, the Anti-LHRH antibody titre in the assay on LHRH [4] (2 weeks post second vaccination, Mouse 1) is 1,412; with LHRH [4] (2 weeks post second vaccination, Mouse 2), 800; with LHRH [4] (2 weeks post second vaccination, Mouse 3), less than 100; in the assay on LHRH [4] (2 weeks post second vaccination, Mouse 4), less than 100; in the assay on LHRH [4] (2 weeks post second vaccination, Mouse 5) it was less than 100; with LHRH [4] (4 weeks post first vaccination, Mouse 1, 2.7 nmoles peptide, base of tail), less than 100. The Anti-LHRH antibody titre with LHRH [4] (4 weeks post first vaccination, Mouse 2) was less than 100; in the assay on LHRH [4] (4 weeks post first vaccination, Mouse 3), less than 100; with LHRH [4] (4 weeks post first vaccination, Mouse 4), less than 100; with LHRH [4] (4 weeks post first vaccination, Mouse 5), less than 100. Also, the “antibody response to the B-cell epitope (LHRH)” value in the assay with LHRH [5] is on record as “strong antibody responses”.

Consider TAAQITAGIALHQSNLN [Peptide P35], for which the “antibody responses to LHRH” value with LHRH [1] is given as “Strong antibody responses”. The “Stimulation indices” value in assay [2] is on record as “the other three dogs responded as well to the 12 residue peptide as to the full length 17 residue one”. For the same substance, the “antibody titres to LHRH” value in the assay on LHRH [4] (BALB/c mice) was “low antibody titres”. In addition, the Stimulatory index was found to be 3.1 in assay [3] (setting [6]); 57 in assay [3] (setting [7]); 3.3 in assay [3] (setting [8]); 22 in assay [3] (setting [9]); 1.7 in assay [3] (setting [11]); 6.8 in assay [3] (setting [12]). The Stimulatory index in assay [3] (setting [13]) is given as 3.8; in assay [3] (setting [14]) it was 10; in assay [3] (Table 5, Border Collie), 2; in assay [3] (Table 5, Fox Terrier), 2.2; in assay [3] (Table 5, Grey hound) it was less than 2; in assay [3] (Table 5, Kelpie Pointer) it was 2. Moreover, the Stimulatory index in assay [3] (Table 5, Poodle Shitzu) is reported as less than 2; in assay [3] (Table 5, Terrier Cross) it was less than 2.
